This note sets out measurements from US11085081B2, “Methods and materials for determining pain sensitivity and predicting and treating related disorders” (The University of North Carolina at Chapel Hill, priority 2004, dated 2021).

The test system of one experiment is 3T3-L1 adipocytes. Description: In vitro cytokine measurement (real time PCR of transcripts) in adipocytes. Format: cell-based, mouse. The note with it: salmeterol 0.5 μM or CL316243 0.3 μM, 1 hr treatment; normalized to GAPDH. The procedure:
Cell growth media consisted of Dulbecco's modified Eagle's medium supplemented with 10% heat-inactivated fetal bovine serum (Sigma, St. Louis, Mo., U.S.A.) and 1× penicillin-streptomycin (Gibco, Carlsbad, Calif., U.S.A.). Cells were maintained in a humidified atmosphere of 95% air and 5% CO2.
Two days after reaching confluence in growth media, adipogenesis was induced by incubating cells in growth media containing 0.25 μM dexamethasone (Sigma), 0.5 mM IBMX (Sigma), and 1 μM insulin (Sigma). After an additional 2 days in growth media containing 1 μM insulin, cells were grown for 6-8 days in normal growth media.
Total RNA was isolated using the RNeasy Mini Kit (Qiagen, Valencia, Calif., U.S.A.). RNA was then treated with 2 units of DNase I (Ambion, Austin, Tex., U.S.A.) at 37° C. for 30 min. Reverse transcription was performed according to the manufacturer's instructions. Briefly, the reverse transcription reaction mixture consisted of 1 μg DNase 1-treated RNA, 500 ng oligo-dT12-18, 10 mM dNTP, 40 units RNasin (Promega, Madison, Wis., U.S.A.), and 200 units of reverse transcriptase SUPERSCRIPT III™ (Invitrogen, Carlsbad, Calif., U.S.A.). cDNA synthesis was carried out at 50° C. for 1 hr followed by inactivation of reverse transcriptase at 70° C. for 15 min.
Mouse macrophages (RAW 264.7) and […] preadipocytes (3T3-L1) were obtained from the University of North Carolina Tissue Culture Facility. Cell maintenance and 3T3-L1 preadipocyte differentiation is described herein below. For pharmacological experiments, cells were seeded at a density of 5×10^5 cells/well in a 12-well plate (Corning). Total RNA was isolated and reverse transcribed as described in the supplementary materials. TNFα, IL-1β, and IL-6 transcripts were quantitated in quadruplicate by real time polymerase chain reaction using TAQMAN® Gene Expression Assays (Applied Biosystems, Foster City, Calif., U.S.A.) in an ABI PRISM 7000 Sequence Detection System. TNFα, IL-1β, and IL-6 transcript levels were normalized to Glyceraldehyde-3-phosphate dehydrogenase (GAPDH).
(In general: In qPCR the cycle at which signal appears reflects the starting amount.)

Another experiment deals with TNFα, IL-1β, and IL-6. Nature of the experiment: In vivo plasma cytokine measurement (ELISA). Details: species or system rat. As to conditions: rats; for plasma levels of IL-1β: OR486 30 mg/kg i.p. or 3% carrageenan i.pl.; for plasma levels of IL-1β / plasma levels of IL-6 / plasma levels of TNFα: relative to vehicle; for plasma levels of IL-6 / plasma levels of TNFα: OR486 or RO41-0960 30 mg/kg i.p., or 3% carrageenan i.pl. The procedure: Blood was centrifuged and plasma separated from red blood cells. Plasma IL-6 was measured in duplicate using enzyme-linked immunosorbant assay (ELISA) kits from R&D systems (Minneapolis, Minn., U.S.A.). Plasma TNFα and IL-1β were measured in duplicate by the University of North Carolina Proteomics Ilmmunotechnologies Core using ELISA kits from Biosource (Camarillo, Calif., U.S.A.) and the National Institute for Biological Standards and Control (UK), respectively.
A general note: ELISA stands for enzyme-linked immunosorbent assay.

In a further experiment the test system is Sprague-Dawley rats. Description: Mechanical and thermal pain behavior testing (von Frey monofilaments, radiant heat). The experiment is classed as in vivo, rat. As to conditions: for paw withdrawal frequency to mechanical stimuli (25 g monofilament) / paw withdrawal latency to thermal stimuli / paw withdrawal threshold to mechanical stimuli: OR486 or RO41-0960 30 mg/kg i.p., or 3% carrageenan i.pl.; for paw withdrawal frequency to mechanical stimuli (25 g monofilament) / paw withdrawal latency to thermal stimuli / paw withdrawal threshold to mechanical stimuli / paw withdrawal frequency to mechanical stimuli, antagonist in the absence of OR486 / paw withdrawal latency to radiant heat, antagonist in the absence of OR486 / paw withdrawal threshold to mechanical stimuli, antagonist in the absence of OR486: relative to vehicle; for paw withdrawal frequency to mechanical stimuli, antagonist in the absence of OR486 / paw withdrawal latency to radiant heat, antagonist in the absence of OR486 / paw withdrawal threshold to mechanical stimuli, antagonist in the absence of OR486: i.p. 10 min prior to vehicle, phentolamine 3, propranolol 3, SCH23390 0.2, spiperone 0.2, betaxolol 1.0, ICI118,551 0.5, SR59230A 5 mg/kg; for blockade of OR486-induced hyperalgesia / heightened pain sensitivity: antagonist i.p. prior to OR486. The procedure:
Rats were placed in plexiglass cages positioned over an elevated perforated stainless steel platform and habituated to the environment for 15-25 min prior to testing. Paw withdrawal threshold to punctate mechanical stimulation was assessed using the up-down method of Chaplan et al. (1994). A series of nine calibrated filaments (with bending forces of 0.40, 0.68, 1.1, 2.1, 3.4, 5.7, 8.4, 13.2, and 25.0 g; Sammons Preston Rolyan, Bolingbrook, Ill., U.S.A.) with approximately equal logarithmic spacing between stimuli (Mean±SEM: 0.232±0.04 units) were presented to the hind paw in successive order, whether ascending or descending. Filaments were positioned in contact with the hind paw for a duration of 3 s or until a withdrawal response occurred. Testing was initiated with the middle hair of the series (3.4 g). In the absence of a paw withdrawal response, an incrementally stronger filament was presented and in the event of a paw withdrawal, an incrementally weaker filament was presented. After the initial response threshold was crossed, this procedure was repeated four times in order to obtain a total of six responses in the immediate vicinity of the threshold. The presence of paw withdrawal (X) and absence of withdrawal (O) was noted together with the terminal filament used in the series of six responses. The 50% g threshold=(10^[Xf+kδ])/10,000, where Xf=value (in log units) of the final von Frey hair used; k=tabular value of pattern of positive (X) and negative (O) responses, and δ=mean difference (in log units) between stimuli.
Immediately following determination of the response threshold, paw withdrawal frequency (%) to punctate mechanical stimulation was assessed. A von Frey monofilament with a calibrated bending force of 25 g was presented to the hind paw 10 times for a duration of 1 s with an interstimulus interval of approximately 1 s. Mechanical hyperalgesia was defined as an increase in the percentage frequency ([# of paw withdrawals/10]×100) of paw withdrawal evoked by stimulation with von Frey monofilaments.
Thermal hyperalgesia was evaluated using the radiant heat method of Hargreaves et al. (1988) in the same animals evaluated for responsiveness to von Frey monofilaments. Radiant heat was presented through the floor of a finely perforated stainless steel platform to the midplantar region of the hind paw.
After establishing stable baseline responsiveness to mechanical and thermal stimuli, separate groups of rats received intraperitoneal injections of OR486 (30 mg/kg i.p.; N=8) or vehicle (N=8) one hour prior to behavioral testing. Responsiveness to von Frey filaments was reassessed at 30 min intervals for 2 hours. Paw withdrawal latencies to radiant heat were subsequently assessed at 2.5 hours into the testing procedure. Twenty-four hours later, baseline responsiveness to mechanical and thermal stimuli was reestablished. Animals received OR486 (30 mg/kg i.p.) or vehicle (consistent with the previous day). Thirty minutes following administration of drug or vehicle, separate groups of rats received intraplantar carrageenan (N=4 per group) or saline (N=4 per group). Responsiveness to von Frey filaments was reassessed at 30 min intervals for 2 hours following the induction of inflammation. Paw withdrawal latencies to radiant heat were subsequently assessed at 2.5 hours post carrageenan.
Rats were handled and habituated to the testing environment 2-3 days prior to establishing baseline responsiveness. On test days, rats were placed in plexiglass cages positioned over an elevated perforated stainless steel platform and habituated to the environment for 15-20 minutes prior to testing. Paw withdrawal threshold to punctate mechanical stimulation was assessed using the up-down method of Chaplan (Chaplan et al. (1994)). […]

Setting [1] is: OR486 30 mg/kg i.p., relative to vehicle or carrageenan in the contralateral non-inflamed paw.
Setting [2] is: i.p. 10 min prior to OR486, ICI118,551 0.5 or 5.0 mg/kg, SR59230A 5 or 50 mg/kg, betaxolol 0.1, 1.0, 10 mg/kg, relative to vehicle prior to OR486.
Setting [3] is: propranolol 3 mg/kg i.p. prior to OR486, relative to vehicle prior to OR486.
Setting [4] is: propranolol 3 mg/kg i.p. 10 minutes prior to OR486, relative to vehicle, phentolamine, SCH23390 or spiperone prior to OR486.

“Also recorded” adds a separate entry of the source.

As for `C[C@H](Cc1ccc2c(c1)OC(C(=O)[O-])(C(=O)[O-])O2)NC[C@H](O)c1cccc(Cl)c1.[Na+].[Na+]` [CL316243, disodium (R,R)-5-(2-[{2-(3-chlorophenyl)-2-hydroxyethyl}-amino]propyl)-1,3-benzodioxole-2,2, dicarboxylate], the “increase in IL-6 mRNA levels in adipocytes” value in the experiment on 3T3-L1 adipocytes was determined as 28 fold.
For the compound `O=[N+]([O-])c1cc(O)c(O)c([N+](=O)[O-])c1` [OR486], the “plasma levels of IL-1β” value in the experiment with TNFα, IL-1β, and IL-6 (30 mg/kg) was “elevated plasma levels”. Moreover, in the experiment with TNFα, IL-1β, and IL-6, the “plasma levels of IL-6” value was “elevated plasma levels” and the “plasma levels of TNFα” value is recorded as “elevated plasma levels”. Moreover, the “degree of mechanical and thermal hyperalgesia” value with Sprague-Dawley rats (OR486 30 mg/kg i.p. compared with carrageenan-induced inflammation of the hindpaw) was “comparable to that produced by carrageenan-induced inflammation”. Further, in the experiment with Sprague-Dawley rats (setting [1]), the “paw withdrawal frequency to 25 g monofilament, non-inflamed paw” value is recorded as “increased paw withdrawal frequency”; the “paw withdrawal latency to thermal stimuli, non-inflamed paw” value was “decreased paw withdrawal latency”; the “paw withdrawal threshold to mechanical stimuli, non-inflamed paw” value was “decreased paw withdrawal threshold”. Moreover, in the experiment on Sprague-Dawley rats, the “paw withdrawal frequency to mechanical stimuli (25 g monofilament)” value (shortened to “paw withdrawal frequency … (25 g monofilament)”) is on record as “increased paw withdrawal frequency”, the “paw withdrawal latency to thermal stimuli” value is “decreased paw withdrawal thresholds; also recorded: decreased paw withdrawal latency” and the “paw withdrawal threshold to mechanical stimuli” value is listed as “significantly decreased paw withdrawal threshold”.
Consider `O=C(c1cc(O)c(O)c([N+](=O)[O-])c1)c1ccccc1F` [RO41-0960], for which, in the experiment with TNFα, IL-1β, and IL-6, the “plasma levels of IL-6” value is given as “a trend towards elevated levels” and the “plasma levels of TNFα” value is reported as “elevated plasma levels”. Further, the “plasma proinflammatory cytokine production” value in the experiment on TNFα, IL-1β, and IL-6 (RO41-0960 30 mg/kg i.p. vs vehicle, 30 mg/kg) is reported as “increased cytokine production; also recorded: increases plasma proinflammatory cytokine levels”. Besides, the “increase in plasma levels of IL-1β” value in the experiment on TNFα, IL-1β, and IL-6 (RO41-0960 30 mg/kg i.p. vs vehicle, no statistical analysis (sample loss)) is 4.5 fold. Also, in the experiment on Sprague-Dawley rats, the “paw withdrawal frequency … (25 g monofilament)” value is listed as “increased paw withdrawal frequency”, the “paw withdrawal latency to thermal stimuli” value is “decreased paw withdrawal latency” and the “paw withdrawal threshold to mechanical stimuli” value is “decreased paw withdrawal threshold”. Moreover, in the experiment with Sprague-Dawley rats (RO41-0960 30 mg/kg i.p.), the “mechanical and thermal pain sensitivity” value was “decreased mechanical and thermal pain sensitivity”.
On to `CC(C)NCC(O)COc1ccc(CCOCC2CC2)cc1` (stereo not shown) [betaxolol], for which, in the experiment with Sprague-Dawley rats (i.p. 10 min prior to OR486, ICI118,551 5.0 mg/kg, SR59230A 5 or 50 mg/kg, betaxolol 0.1, 1.0, 10 mg/kg, relative to vehicle prior to OR486), the “paw withdrawal latency to radiant heat after OR486, selective βAR antagonists” value is given as “failed to alter”. In the experiment on Sprague-Dawley rats (setting [2]), the “paw withdrawal frequency to mechanical stimuli after OR486, selective βAR antagonists” value is on record as “failed to alter” and the “paw withdrawal threshold to mechanical stimuli after OR486, selective βAR antagonists” value is “failed to alter”. For the same compound, in the experiment on Sprague-Dawley rats, the “paw withdrawal frequency to mechanical stimuli, antagonist in the absence of OR486” value (“paw withdrawal frequency … of OR486” below) is “failed to affect”; the “paw withdrawal latency to radiant heat, antagonist in the absence of OR486” value (“paw withdrawal latency … of OR486” for short) is “failed to affect”; the “paw withdrawal threshold to mechanical stimuli, antagonist in the absence of OR486” value (from here on “paw withdrawal threshold … of OR486”) is listed as “failed to affect”.
Regarding `Cc1ccc(N(CC2=NCCN2)c2cccc(O)c2)cc1` [phentolamine], in the experiment with Sprague-Dawley rats, the “blockade of OR486-induced hyperalgesia / heightened pain sensitivity” value is “failed to block”; the “paw withdrawal frequency … of OR486” value is listed as “failed to affect”; the “paw withdrawal latency … of OR486” value was “failed to affect”; the “paw withdrawal threshold … of OR486” value is reported as “failed to affect”.
On to `CC(C)NCC(O)COc1cccc2ccccc12` (stereo not shown) [propranolol], for which, in the experiment on TNFα, IL-1β, and IL-6 (setting [3]), the “plasma levels of IL-1β after OR486” value is “normalized plasma levels; also recorded: decreased plasma levels”, the “plasma levels of IL-6 after OR486” value is “normalized plasma levels; also recorded: decreased plasma levels” and the “plasma levels of TNFα after OR486” value is on record as “normalized plasma levels; also recorded: decreased plasma levels”. Also, in the experiment with Sprague-Dawley rats, the “blockade of OR486-induced hyperalgesia / heightened pain sensitivity” value is “completely blocks”; the “paw withdrawal frequency … of OR486” value is recorded as “failed to affect”; the “paw withdrawal latency … of OR486” value is “failed to affect”; the “paw withdrawal threshold … of OR486” value was “failed to affect”. In the experiment on Sprague-Dawley rats (setting [4]), the “paw withdrawal frequency to mechanical stimuli after OR486” value is listed as “normalized”, the “paw withdrawal latency to radiant heat after OR486” value is “normalized” and the “paw withdrawal threshold to mechanical stimuli after OR486” value is reported as “normalized”.
For `O=C(CCCN1CCC2(CC1)C(=O)NCN2c1ccccc1)c1ccc(F)cc1` [spiperone], in the experiment on Sprague-Dawley rats, the “blockade of OR486-induced hyperalgesia / heightened pain sensitivity” value was “failed to block”; the “paw withdrawal frequency … of OR486” value is “failed to affect”; the “paw withdrawal latency … of OR486” value is recorded as “failed to affect”; the “paw withdrawal threshold … of OR486” value is on record as “failed to affect”.
As for carrageenan, in the experiment with TNFα, IL-1β, and IL-6, the “plasma levels of IL-1β” value is recorded as “elevated levels”, the “plasma levels of IL-6” value is listed as “elevated levels” and the “plasma levels of TNFα” value is reported as “elevated levels”. In addition, in the experiment on Sprague-Dawley rats, the “paw withdrawal frequency … (25 g monofilament)” value is on record as “increased paw withdrawal frequency”, the “paw withdrawal latency to thermal stimuli” value was “decreased paw withdrawal latency” and the “paw withdrawal threshold to mechanical stimuli” value is recorded as “decreased paw withdrawal threshold”.
